Measured values: patent US20250195530A1, “POLQ INHIBITORS” (ASTRAZENECA AB, priority 2022, published 2025)
Like-named read-outs stand apart in the source and are kept apart here.

Test system: DLD-1 BRCA2−/− cells
Experiment: Homologous recombination synthetic lethal inhibition of proliferation, DLD-1 BRCA2-/- (Cell Titre Glo 3D)
Assay type: cell-based
Conditions: Homo sapiens
Outline: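 Proliferation of HR-deficient DLD-1 BRCA2−/− versus isogenic wild-type DLD-1 was measured by ATP luminescence (CellTiter-Glo 3D). Compound exposure lasted 12 or 7 days, respectively, with a fresh dose on day 6. IC50 was the concentration halving maximal signal.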

[1] = DLD-1, first proliferation column, DLD-1 BRCA2-/-, read-out: POLQ PD Prolif Lumin (converted)
[2] = DLD-1, first proliferation column (c5), DLD-1 BRCA2-/-, read-out: POLQ PD Prolif Lumin (converted)
[3] = DLD-1, proliferation, luminescence, taken as DLD-1 BRCA2-/-, read-out: POLQ PD Prolif Lumin (converted)
[4] = DLD-1, DLD-1 BRCA2 −/− cells, mean, read-out: POLQ PD Prolif Lumin BRCA2 −/− mean pIC50 (converted)
[5] = DLD-1, DLD-1 BRCA2-/- proliferation, column head only partly shown, read-out: POLQ PD Prolif Lumin (converted)
[6] = DLD-1, first proliferation column (c5), taken as DLD-1 BRCA2-/-, read-out: POLQ PD Prolif Lumin (converted)
[7] = DLD-1, DLD-1 BRCA2 −/−, mean, read-out: POLQ PD Prolif Lumin BRCA2 −/− mean pIC50 (converted)

Cc1ccnc(Cn2c(-c3ccc(N4CCC5(CCN5)CC4)cc3Cl)nc3c(OC4(C)CC4)ncnc32)c1 [Example T586, 8-(2-chloro-4-(1,7-diazaspiro[3.5]nonan-7-yl)phenyl)-6-(1-methylcyclopropoxy)-9-((4-methylpyridin-2-yl)methyl)-9H-purine] showed an IC50 [1] of 1580 nM.

CNC(=O)COc1ccc(-c2nc3c(OC4(C)CC4)ncnc3n2Cc2cc(C)ccn2)c(Cl)c1 [Example T118, 2-(3-chloro-4-(6-(1-methylcyclopropoxy)-9-((4-methylpyridin-2-yl)methyl)-9H-purin-8-yl)phenoxy)-N-methylacetamide] was tested, and the IC50 [2] was 251 nM.

For COc1cccc(Cn2c(-c3ccc(OCCC(C)C(=O)O)cc3Cl)nc3c(OC4(C)CC4)ncnc32)c1 (racemic) [Example T454, 4-(3-chloro-4-(9-(3-methoxybenzyl)-6-(1-methylcyclopropoxy)-9H-purin-8-yl)phenoxy)-2-methylbutanoic acid], the IC50 [3] was 794 nM.

Cc1ccnc(Cn2c(-c3ccc(OCCN4CCCC4=O)cc3Cl)nc3c(OC4(C)CC4)ncnc32)c1 [Example T469, 1-(2-(3-chloro-4-(6-(1-methylcyclopropoxy)-9-((4-methylpyridin-2-yl)methyl)-9H-purin-8-yl)phenoxy)ethyl)pyrrolidin-2-one] showed an IC50 [3] of 158 nM.

Cc1ccnc(Cn2c(-c3ccc(C(=O)NCC(F)F)cc3Cl)nc3c(OC4(C)CC4)ncnc32)c1 [Example T93, 3-chloro-N-(2,2-difluoroethyl)-4-(6-(1-methylcyclopropoxy)-9-((4-methylpyridin-2-yl)methyl)-9H-purin-8-yl)benzamide] was tested, and the IC50 [4] was 316 nM.

CO[C@H]1CCN(C(=O)COc2ccc(-c3nc4c(OC5(C)CC5)ncnc4n3Cc3cc(C)ccn3)c(Cl)c2)C1 [Example T577, (S)-2-(3-chloro-4-(6-(1-methylcyclopropoxy)-9-((4-methylpyridin-2-yl)methyl)-9H-purin-8-yl)phenoxy)-1-(3-methoxypyrrolidin-1-yl)ethan-1-one] was tested, and the IC50 [1] was 398 nM.

Cc1ccnc(Cn2c(-c3ccc(CC(=O)NCCO)cc3Cl)nc3c(OC4(C)CC4)ncnc32)c1 [Example T224, 2-(3-chloro-4-(6-(1-methylcyclopropoxy)-9-((4-methylpyridin-2-yl)methyl)-9H-purin-8-yl)phenyl)-N-(2-hydroxyethyl)acetamide] gave an IC50 [5] of 1000 nM.

For CC1(Oc2ncnc3c2nc(-c2cccc(OCCCCCCC(=O)O)c2Cl)n3Cc2cccc(Cl)c2)CC1 [Example T564, 7-(2-chloro-3-(9-(3-chlorobenzyl)-6-(1-methylcyclopropoxy)-9H-purin-8-yl)phenoxy)heptanoic acid], the IC50 [2] was 31.6 nM.

Cc1ccnc(Cn2c(-c3ccc(OCC(=O)NC4CC4)cc3Cl)nc3c(OC4(C)CC4)ncnc32)c1 [Example T318, 2-(3-chloro-4-(6-(1-methylcyclopropoxy)-9-((4-methylpyridin-2-yl)methyl)-9H-purin-8-yl)phenoxy)-N-cyclopropylacetamide] gave an IC50 [6] of 398 nM.

Work on Cc1c(Cn2c(-c3ccc(OCCC(C)C(=O)O)cc3Cl)nc3c(OC4(C)CC4)ncnc32)cccc1C(F)(F)F (single isomer, unassigned) [Example T534, 4-(3-chloro-4-(9-(2-methyl-3-(trifluoromethyl)benzyl)-6-(1-methylcyclopropoxy)-9H-purin-8-yl)phenoxy)-2-methylbutanoic acid] yielded an IC50 [2] of 3160 nM.

With C/C(=C\COc1ccc(-c2nc3c(OC4(C)CC4)ncnc3n2Cc2cccc(Cl)c2)c(Cl)c1)C(=O)O [Example T255, (E)-4-(3-chloro-4-(9-(3-chlorobenzyl)-6-(1-methylcyclopropoxy)-9H-purin-8-yl)phenoxy)-2-methylbut-2-enoic acid] the IC50 [5] was 316 nM.

Cc1ccnc(Cn2c(-c3ccc(C4CCC(=O)N4)cc3Cl)nc3c(OC4(C)CC4)ncnc32)c1 (single isomer, unassigned) [Example T172, 5-(3-chloro-4-(6-(1-methylcyclopropoxy)-9-((4-methylpyridin-2-yl)methyl)-9H-purin-8-yl)phenyl)pyrrolidin-2-one] gave an IC50 [2] of 398 nM.

Cc1ccnc(Cn2c(-c3ccc(NC(=O)N(C)C)cc3Cl)nc3c(OC4(C)CC4)ncnc32)c1 [Example T130, 3-(3-chloro-4-(6-(1-methylcyclopropoxy)-9-((4-methylpyridin-2-yl)methyl)-9H-purin-8-yl)phenyl)-1,1-dimethylurea] showed an IC50 [2] of 501 nM.

With CC(Cc1ccccn1)n1c(-c2ccc(OCCN3CCNCC3)cc2Cl)nc2c(OC3(C)CC3)ncnc21 (single isomer, unassigned) [Example S7, 8-(2-chloro-4-(2-(piperazin-1-yl)ethoxy)phenyl)-6-(1-methylcyclopropoxy)-9-(1-(pyridin-2-yl)propan-2-yl)-9H-purine] the IC50 (DLD-1, 288 h, DLD-1 BRCA2−/− cells, 12 days, read-out: POLQ PD Prolif Lumin BRCA2 −/− mean pIC50 (converted)) was 6310 nM.

For Cc1ccnc(Cn2c(-c3ccc(OCC(=O)N4CC[C@H](F)C4)cc3Cl)nc3c(OC4(C)CC4)ncnc32)c1 [Example T420, (S)-2-(3-chloro-4-(6-(1-methylcyclopropoxy)-9-((4-methylpyridin-2-yl)methyl)-9H-purin-8-yl)phenoxy)-1-(3-fluoropyrrolidin-1-yl)ethan-1-one], the IC50 [3] was 251 nM.

With CC1(Oc2ncnc3c2nc(-c2ccc(OCCO)cc2Cl)n3Cc2cc(C(F)(F)F)ccn2)CC1 [Example T44, 2-(3-chloro-4-(6-(1-methylcyclopropoxy)-9-((4-(trifluoromethyl)pyridin-2-yl)methyl)-9H-purin-8-yl)phenoxy)ethan-1-ol] the IC50 [4] was 251 nM.

With Cc1ccc(C)c(Cn2c(-c3ccc(OCCC(C)C(=O)O)cc3Cl)nc3c(OC4(C)CC4)ncnc32)c1 (single isomer, unassigned) [Example T573, 4-(3-chloro-4-(9-(2,5-dimethylbenzyl)-6-(1-methylcyclopropoxy)-9H-purin-8-yl)phenoxy)-2-methylbutanoic acid] the IC50 [1] was 501 nM.

For Cc1ccnc(Cn2c(-c3ccc(OCC(=O)N4CCNC(=O)C4)cc3Cl)nc3c(OC4(C)CC4)ncnc32)c1 [Example T432, 4-(2-(3-chloro-4-(6-(1-methylcyclopropoxy)-9-((4-methylpyridin-2-yl)methyl)-9H-purin-8-yl)phenoxy)acetyl)piperazin-2-one], the IC50 [3] was > 6310 nM.

Cc1ccnc(Cn2c(-c3ccc(OCC(=O)NCCCF)cc3Cl)nc3c(OC4(C)CC4)ncnc32)c1 [Example T328, 2-(3-chloro-4-(6-(1-methylcyclopropoxy)-9-((4-methylpyridin-2-yl)methyl)-9H-purin-8-yl)phenoxy)-N-(3-fluoropropyl)acetamide] was tested, and the IC50 [6] was 398 nM.

CC(CCOc1ccc(-c2nc3c(OC4(C)CC4)ncnc3n2Cc2ccccc2F)c(Cl)c1)C(=O)O (racemic) [Example U5, 4-(3-chloro-4-(9-(2-fluorobenzyl)-6-(1-methylcyclopropoxy)-9H-purin-8-yl)phenoxy)-2-methylbutanoic acid] showed an IC50 [7] of 316 nM.

With CC(CCOc1ccc(-c2nc3c(OC4(C)CC4)ncnc3n2Cc2cc(F)cc(Cl)c2)c(Cl)c1)C(=O)O (single isomer, unassigned) [Example T272, 4-(3-chloro-4-(9-(3-chloro-5-fluorobenzyl)-6-(1-methylcyclopropoxy)-9H-purin-8-yl)phenoxy)-2-methylbutanoic acid] the IC50 [5] was 200 nM.

With CNC(=O)c1cccc(-c2nc3c(OC4(C)CC4)ncnc3n2Cc2cc(C)ccn2)c1Cl [Example T55, 2-chloro-N-methyl-3-(6-(1-methylcyclopropoxy)-9-((4-methylpyridin-2-yl)methyl)-9H-purin-8-yl)benzamide] the IC50 [4] was 631 nM.

With Cc1ccnc(Cn2c(-c3ccc(C(=O)NC(C)(C)CO)cc3Cl)nc3c(OC4(C)CC4)ncnc32)c1 [Example T362, 3-chloro-N-(1-hydroxy-2-methylpropan-2-yl)-4-(6-(1-methylcyclopropoxy)-9-((4-methylpyridin-2-yl)methyl)-9H-purin-8-yl)benzamide] the IC50 [6] was 631 nM.

CNC(=O)N1CC[C@@H](Oc2ccc(-c3nc4c(OC5(C)CC5)ncnc4n3Cc3cc(C)ccn3)c(Cl)c2)C1 [Example T501, (R)-3-(3-chloro-4-(6-(1-methylcyclopropoxy)-9-((4-methylpyridin-2-yl)methyl)-9H-purin-8-yl)phenoxy)-N-methylpyrrolidine-1-carboxamide] was tested, and the IC50 [2] was 794 nM.

In the case of Cc1ccnc(Cn2c(-c3ccc(O[C@@H]4CCN(C(N)=O)C4)cc3Cl)nc3c(OC4(C)CC4)ncnc32)c1 [Example T344, (R)-3-(3-chloro-4-(6-(1-methylcyclopropoxy)-9-((4-methylpyridin-2-yl)methyl)-9H-purin-8-yl)phenoxy)pyrrolidine-1-carboxamide], the IC50 [6] is reported as 2000 nM.

In the case of CC1(Oc2ncnc3c2nc(-c2ccc(CC(N)=O)cc2Cl)n3Cc2nnc(C3CC3)o2)CC1 [Example T21, 2-(3-chloro-4-(9-((5-cyclopropyl-1,3,4-oxadiazol-2-yl)methyl)-6-(1-methylcyclopropoxy)-9H-purin-8-yl)phenyl)acetamide], the IC50 [4] is reported as > 10000 nM.

In the case of CC(COc1ccc(-c2nc3c(OC4(C)CC4)ncnc3n2Cc2cc(Cl)ccc2F)c(Cl)c1)CC(=O)O (racemic) [Example U45, 4-(3-chloro-4-(9-(5-chloro-2-fluorobenzyl)-6-(1-methylcyclopropoxy)-9H-purin-8-yl)phenoxy)-3-methylbutanoic acid], the IC50 [7] is reported as 79.4 nM.
